Experimental data reported in article PMC10348910, “Epigenetic reprogramming of cell cycle genes by ACK1 promotes breast cancer resistance to CDK4/6 inhibitor” (Oncogene, 2023).

Legend:
Format in all cases: cell-based
breast cancer cell lines [1] = assay: proliferation assay, trypan blue exclusion; conditions: 96 h
Method: (§1) Fig. 2 ACK1 regulates breast cancer transcriptome, affecting genes implicated in cell cycle progression. A Chemical structure of (R)-9b. B Breast cancer cell lines were treated with either vehicle or (R)-9b overnight and cell lysates were subjected to immunoprecipitation using ACK1 antibody, followed by immunoblotting with pY284-ACK1 antibody. Lysates were also subjected to immunoblotting with total ACK1 and Actin antibodies, shown in the lower panels. […] C Breast cancer cell lines were treated with varying concentrations of (R)-9b for 96 h and the cell proliferation was measured using Trypan Blue exclusion method. […]
(§2) For proliferation assay, 5 × 10^4 cells were plated in 6-well plate and treated with either vehicle (DMSO) or varying concentrations of (R)-9b or palbociclib in complete media for 96 h and number of viable cells were counted by trypan blue exclusion assay. […] The cells were acquired using the BD FACSCalibur machine (BD Biosciences) and data was analyzed using FlowJo software. […] The data were analyzed using FlowJo software.
(§3) No data was excluded from the analysis. […] Data were expressed as the mean ± SEM. Data between two groups were analyzed with unpaired Student’s t tests using Graphpad Prism (Graphpad Software Inc, California, USA). […]

[2] = test system: normal breast cell line, MCF10A; assay: proliferation assay, trypan blue exclusion; conditions: Homo sapiens, MCF-10A, 96 h
Method: as §1, §2, §3

breast cancer cell lines [3] = assay: cell cycle analysis, propidium iodide flow cytometry; conditions: 48 h
Method: (§4) A–F Breast cancer cells were treated with either vehicle or (R)-9b for 48 h; cells were harvested and processed for cell cycle analysis using propidium iodide staining, followed by flow cytometry. G BT549 and H MDA-MB-468 cells were treated with varying drug concentrations of palbociclib or (R)-9b for 96 h and the cell viability assessed using trypan blue exclusion method. I BT549, and J MDA-MB-468 cells were treated with 1 µM palbociclib or (R)-9b for 48 h and subjected to cell cycle analysis using propidium iodide staining, followed by flow-cytometry. Palbociclib-resistant MDA-MB-231 (K) and HCC-1395 (L) were generated and treated with varying drug concentrations of palbociclib or (R)-9b for 96 h and the cell viability assessed using trypan blue exclusion method.
(§5) For proliferation assay, 5 × 10^4 cells were plated in 6-well plate and treated with either vehicle (DMSO) or varying concentrations of (R)-9b or palbociclib in complete media for 96 h and number of viable cells were counted by trypan blue exclusion assay. Breast cancer cell lines were treated with vehicle or varying concentrations of (R)-9b for 72 h. The cells were harvested, washed 2 times with PBS and incubated with 3 ul of Annexin V-FITC antibody according to the manufacturers protocol (BD Biosciences). Five µl Propidium iodide was used to stain necrotic cells. The cells were acquired using the BD FACSCalibur machine (BD Biosciences) and data was analyzed using FlowJo software. Cell cycle analysis was performed as mentioned earlier. Briefly, vehicle or (R)-9b (48 h) treated cells were harvested by trypsinization, washed 2 times with PBS, and fixed using chilled 70% Ethanol for 1 h, followed by 2 washes with PBS. The cell pellets were treated with 50 µl RNase A (100 µg/ml; Sigma) for 15 min at 37 °C and Propidium Iodide (PI; 50 µg/ml, Sigma) was added to these cells, followed by acquisition using BD FACS Canto-II or FACSCalibur machines. The data were analyzed using FlowJo software.

[4] = test system: normal breast cells, MCF10a; assay: as above; conditions: 48 h
Method: as §4, §5

[5] = test system: pY88-H4 marks at CDC20, CCNB1 and CCNB2; assay: ChIP-qPCR with pY88-H4 antibody at CDC20, CCNB1 and CCNB2 loci; conditions: breast cancer cell lines
Method: Fig. 4 ACK1 epigenetically modifies the chromatin landscape by depositing pY88-H4 activating marks, regulating cell cycle genes. A Breast cancer cell lines were treated with (R)-9b overnight and the cell lysates were subjected to immunoprecipitation using pY88-H4 antibody, followed by immunoblotting with H4 antibody. Lysates were also subjected to immunoblotting with total H4 and Actin antibodies, shown in the lower panels. […] B Venn diagrams summarizing the overlap between sites bound by pY88-H4 in vehicle treated and (R)-9b treated MDA-MB-453 cells. […] Breast cancer cells were subjected to ChIP using pY88-H4 antibody followed by qPCR for (D) CCNB1, (E) CCNB2, and (F) CDC20 genes. […]
Cell pellets were resuspended in RLB buffer and sonicated and the soluble chromatin was incubated with antibodies and Protein-G/A magnetic beads. […] The size and quality of the library was evaluated using the Agilent BioAnalyzer (Agilent Technologies, Inc., Santa Clara, CA), and the library was quantitated with the Kapa Library Quantification Kit. Each enriched DNA library was then sequenced on an Illumina NextSeq 500 sequencer to generate 40–50 million 75-base paired-end reads (Illumina, Inc., San Diego, CA). […]
Real-time quantitative PCR analyses were performed using the ABI PRISM 7900HT Sequence Detection System (Applied Biosystems) as described earlier. […]

**Q.** Which IC50 (breast cancer cell lines [1]) does the source give for CN1CCN(c2ccc(Nc3ncc(Cl)c(NC[C@H]4CCCO4)n3)cc2)CC1 [(R)-9b] here?
**A.** The IC50 was 0.25 to 1.22 µM.

**Q.** What about the IC50 [2] of the same molecule?
**A.** The IC50 was 1.49 µM.

**Q.** And the cell cycle effect (breast cancer cell lines [3]; MDA-MB-453, MCF7, HCC-1395, SKBR3 and T47D)?
**A.** The cell cycle effect was “arrest in G2/M phase”.

**Q.** And the cell cycle effect (breast cancer cell lines [3]; palbociclib-resistant BT549 and MDA-MB-468 cells, 1 µM)?
**A.** Its cell cycle effect is “G2/M cell cycle arrest”.

**Q.** And the cell cycle effect [4]?
**A.** Its cell cycle effect is “no G2/M arrest”.

**Q.** What about the “pY88-H4 marks at CDC20, CCNB1 and CCNB2 gene loci (ChIP-qPCR)” value [5] of the same molecule?
**A.** Its value is “significantly compromised”.
